Data: US11673894B2, “Imidazopyrimidines and triazolopyrimidines as A2A / A2B inhibitors” (Incyte Corporation, priority 2018, dated 2023)

Tests used:
Adenosine A2A receptor = Adenosine A2A receptor (Homo sapiens (Human), UniProt P29274); assay: A2A Tag-lite HTRF Assay; conditions: Tag-lite Adenosine A2A labeled cells; A2A Receptor Red antagonist fluorescent ligand 12.5 nM; one-site competitive binding model; read-out: A2A_Ki
Description: The final concentration of DMSO was 1%.

[1] = target: human adenosine A2B receptor (Homo sapiens (Human), UniProt P29275); assay: Adenosine A2B Receptor Cyclic AMP GS Assay; format: cell-based; conditions: HEK-293 cells expressing human A2B receptor; agonist NECA at 12 nM; cAMP accumulation (FRET); read-out: A2B_cAMP_EC50
Outline: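 HEK-293 cells stably expressing human A2B receptor were pretreated 30 min at room temperature with compound, then stimulated with 12 nM NECA for 60 min. cAMP accumulation was measured by HTRF (665/620 ratio). Values were fitted from percent of control versus log concentration.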

Chain of human adenosine A2B receptor (P29275 whole entry): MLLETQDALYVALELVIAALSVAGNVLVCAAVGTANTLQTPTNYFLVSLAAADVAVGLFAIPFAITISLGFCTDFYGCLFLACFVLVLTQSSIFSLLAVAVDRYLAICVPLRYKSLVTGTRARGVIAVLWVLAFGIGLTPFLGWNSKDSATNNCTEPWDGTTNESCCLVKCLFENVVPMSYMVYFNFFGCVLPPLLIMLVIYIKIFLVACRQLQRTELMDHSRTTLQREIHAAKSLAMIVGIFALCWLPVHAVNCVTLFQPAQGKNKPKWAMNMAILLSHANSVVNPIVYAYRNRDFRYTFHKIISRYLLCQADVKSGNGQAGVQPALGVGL
Chain of Adenosine A2A receptor (P29274 whole entry): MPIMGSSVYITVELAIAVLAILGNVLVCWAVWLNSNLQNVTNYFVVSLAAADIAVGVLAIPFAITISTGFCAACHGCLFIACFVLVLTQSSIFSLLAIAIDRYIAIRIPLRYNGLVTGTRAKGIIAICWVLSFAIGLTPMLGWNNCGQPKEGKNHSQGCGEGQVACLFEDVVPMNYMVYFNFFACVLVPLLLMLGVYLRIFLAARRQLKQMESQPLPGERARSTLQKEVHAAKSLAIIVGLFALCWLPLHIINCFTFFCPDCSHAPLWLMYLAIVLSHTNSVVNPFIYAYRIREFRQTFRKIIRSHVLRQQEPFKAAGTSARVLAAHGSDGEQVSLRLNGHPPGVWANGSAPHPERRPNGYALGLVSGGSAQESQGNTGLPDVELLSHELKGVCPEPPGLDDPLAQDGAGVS

| Ki (Adenosine A2A receptor) [nM] | EC50 [1] [nM] | SMILES |
| --- | --- | --- |
| < 10 | < 10 | N#Cc1cccc(-c2nc(N)n3nc(C(=O)c4ccccc4)nc3c2-c2ccncn2)c1 [Example 66, 3-(5-Amino-2-benzoyl-8-(pyrimidin-4-yl)-[1,2,4]triazolo[1,5-c]pyrimidin-7-yl)benzonitrile] |
| < 10 | 100 to 1000 | CCn1nccc1-c1c(-c2cccc(C#N)c2)nc(N)n2nc(C3(c4ccccc4)CC3)nc12 [Example 67, 3-(5-Amino-8-(1-ethyl-1H-pyrazol-5-yl)-2-(1-phenylcyclopropyl)-[1,2,4]triazolo[1,5-c]pyrimidin-7-yl)benzonitrile] |
| < 10 | 100 to 1000 | N#Cc1cccc(-c2nc(Nc3ncccc3C#N)n3nc(C(O)c4ccccc4)nc3c2-c2ccncn2)c1 (stereo not drawn) [Example 68, 2-((7-(3-Cyanophenyl)-2-(hydroxy(phenyl)methyl)-8-(pyrimidin-4-yl)-[1,2,4]triazolo[1,5-c]pyrimidin-5-yl)amino)nicotinonitrile] |
| < 10 | 10 to 100 | N#Cc1cccc(-c2nc(N)n3nc(NC(C#N)c4ccccc4)nc3c2-c2ccncn2)c1 (stereo not drawn) [Example 69, 3-(5-Amino-2-((cyano(phenyl)methyl)amino)-8-(pyrimidin-4-yl)-[1,2,4]triazolo[1,5-c]pyrimidin-7-yl)benzonitrile] |
| < 10 | 10 to 100 | N#Cc1cccc(-c2nc(N)n3nc(C4CCOC4)nc3c2-c2ccncc2)c1 (stereo not drawn) [Example 70, 3-(5-Amino-8-(pyridin-4-yl)-2-(tetrahydrofuran-3-yl)-[1,2,4]triazolo[1,5-c]pyrimidin-7-yl)benzonitrile] |
| < 10 | 10 to 100 | N#Cc1cccc(-c2nc(N)n3nc(C(Oc4ccccn4)c4ccccc4)nc3c2-c2ccncn2)c1 (stereo not drawn) [Example 71, 3-(5-Amino-2-(phenyl(pyridin-2-yloxy)methyl)-8-(pyrimidin-4-yl)-[1,2,4]triazolo[1,5-c]pyrimidin-7-yl)benzonitrile] |
| < 10 | 10 to 100 | N#Cc1cccc(-c2nc(N)n3nc(Cc4c(F)cccc4CN4C[C@@H](O)[C@H](F)C4)nc3c2-c2ccncn2)c1 [Example 72, 3-(5-Amino-2-(2-fluoro-6-(((3R,4R)-3-fluoro-4-hydroxypyrrolidin-1-yl)methyl)benzyl)-8-(pyrimidin-4-yl)-[1,2,4]triazolo[1,5-c]pyrimidin-7-yl)benzonitrile] |
| < 10 | 10 to 100 | N#Cc1cccc(-c2nc(N)n3nc(Cc4c(F)cccc4CN4CCC(C(=O)O)CC4)nc3c2-c2ccncn2)c1 [Example 73, 1-(2-((5-Amino-7-(3-cyanophenyl)-8-(pyrimidin-4-yl)-[1,2,4]triazolo[1,5-c]pyrimidin-2-yl)methyl)-3-fluorobenzyl)piperidine-4-carboxylic acid] |
| < 10 | < 10 | CN(Cc1cccc(F)c1Cc1nc2c(-c3ccncn3)c(-c3cccc(C#N)c3)nc(N)n2n1)S(C)(=O)=O [Example 74, N-(2-((5-Amino-7-(3-cyanophenyl)-8-(pyrimidin-4-yl)-[1,2,4]triazolo[1,5-c]pyrimidin-2-yl)methyl)-3-fluorobenzyl)-N-methylmethanesulfonamide] |
| < 10 | < 10 | N#Cc1cccc(-c2nc(N)n3nc(Cc4c(F)cccc4CN4C(=O)CNC4=O)nc3c2-c2ccncn2)c1 [Example 75, 3-(5-Amino-2-(2-((2,5-dioxoimidazolidin-1-yl)methyl)-6-fluorobenzyl)-8-(pyrimidin-4-yl)-[1,2,4]triazolo[1,5-c]pyrimidin-7-yl)benzonitrile] |
| < 10 | < 10 | Cc1cc(C(F)(F)F)nn1Cc1nc2c(-c3ccncn3)c(-c3cccc(C#N)c3)nc(N)n2n1 [Example 81, 3-(5-Amino-2-((5-methyl-3-(trifluoromethyl)-1H-pyrazol-1-yl)methyl)-8-(pyrimidin-4-yl)-[l*2,4]triazolo[1,5-c]pyrimidin-7-yl)benzonitrile] |
| < 10 | < 10 | CCc1ncoc1-c1c(-c2cccc(C#N)c2)nc(N)n2nc(Cc3ccccn3)nc12 [Example 82, 3-(5-Amino-8-(4-ethyloxazol-5-yl)-2-(pyridin-2-ylmethyl)-[1,2,4]triazolo[1,5-c]pyrimidin-7-yl)benzonitrile] |
| < 10 | 10 to 100 | CCn1nncc1-c1c(-c2cccc(C#N)c2)nc(N)n2nc(Cc3ccccn3)nc12 [Example 83, 3-(5-Amino-8-(1-ethyl-1H-1,2,3-triazol-5-yl)-2-(pyridin-2-ylmethyl)-[1,2,4]triazolo[1,5-c]pyrimidin-7-yl)benzonitrile] |
| < 10 | < 10 | Cc1cccnc1Cc1nc2c(-c3ocnc3C)c(-c3cccc(C#N)c3)nc(N)n2n1 [Example 84, 3-(5-Amino-8-(4-methyloxazol-5-yl)-2-((3-methylpyridin-2-yl)methyl)-[1,2,4]triazolo[1,5-c]pyrimidin-7-yl)benzonitrile] |
| < 10 | < 10 | Cc1nc(CO)c(-c2c(-c3cccc(C#N)c3)nc(N)n3nc(Cc4ncccc4F)nc23)o1 [Example 85, 3-(5-Amino-2-((3-fluoropyridin-2-yl)methyl)-8-(4-(hydroxymethyl)-2-methyloxazol-5-yl)-[1,2,4]triazolo[1,5-c]pyrimidin-7-yl)benzonitrile] |
| < 10 | < 10 | N#Cc1cccc(-c2nc(N)n3nc(Cc4c(F)cccc4CN4CCCS4(=O)=O)nc3c2-c2ccncn2)c1 [Example 86, 3-(5-Amino-2-(2-((1,1-dioxidoisothiazolidin-2-yl)methyl)-6-fluorobenzyl)-8-(pyrimidin-4-yl)-[1,2,4]triazolo[1,5-c]pyrimidin-7-yl)benzonitrile] |
| < 10 | < 10 | CN1CC(=O)N(Cc2cccc(F)c2Cc2nc3c(-c4ccncn4)c(-c4cccc(C#N)c4)nc(N)n3n2)C1=O [Example 87, 3-(5-Amino-2-(2-fluoro-6-((3-methyl-2,5-dioxoimidazolidin-1-yl)methyl)benzyl)-8-(pyrimidin-4-yl)-[1,2,4]triazolo[1,5-c]pyrimidin-7-yl)benzonitrile] |
| < 10 | < 10 | N#Cc1cccc(-c2nc(N)n3nc(Cc4ncccc4F)nc3c2-c2ccncn2)c1 [Example 88, 3-(5-Amino-2-((3-fluoropyridin-2-yl)methyl)-8-(pyrimidin-4-yl)-[1,2,4]triazolo[1,5-c]pyrimidin-7-yl)benzonitrile] |
| < 10 | < 10 | Cc1ncoc1-c1c(-c2cccc(C#N)c2)nc(N)n2nc(Cc3cccc(C(F)(F)F)n3)nc12 [Example 89, 3-(5-Amino-8-(4-methyloxazol-5-yl)-2-((6-(trifluoromethyl)pyridin-2-yl)methyl)-[1,2,4]triazolo[1,5-c]pyrimidin-7-yl)benzonitrile] |
| < 10 | < 10 | Cc1ncoc1-c1c(-c2cccc(C#N)c2F)nc(N)n2nc(Cc3ccccn3)nc12 [Example 90, 3-(5-Amino-8-(4-methyloxazol-5-yl)-2-(pyridin-2-ylmethyl)-[1,2,4]triazolo[1,5-c]pyrimidin-7-yl)-2-fluorobenzonitrile] |
| < 10 | < 10 | Cc1ncoc1-c1c(-c2cccc(C#N)c2)nc(N)n2nc(Cc3ncccc3CO)nc12 [Example 91, 3-(5-Amino-2-((3-(hydroxymethyl)pyridin-2-yl)methyl)-8-(4-methyloxazol-5-yl)-[1,2,4]triazolo[1,5-c]pyrimidin-7-yl)benzonitrile] |
| < 10 | < 10 | Cc1ncoc1-c1c(-c2cccc(C#N)c2)nc(N)n2nc(Cc3ccn(C)n3)nc12 [Example 92, 3-(5-Amino-2-((1-methyl-1H-pyrazol-3-yl)methyl)-8-(4-methyloxazol-5-yl)-[1,2,4]triazolo[1,5-c]pyrimidin-7-yl)benzonitrile] |
| < 10 | < 10 | Cn1ccc(Cc2nc3c(-c4cnco4)c(-c4cccc(C#N)c4)nc(N)n3n2)n1 [Example 93, 3-(5-Amino-2-((1-methyl-1H-pyrazol-3-yl)methyl)-8-(oxazol-5-yl)-[1,2,4]triazolo[1,5-c]pyrimidin-7-yl)benzonitrile] |
| < 10 | < 10 | Cc1cccnc1COc1nc2c(-c3ccncn3)c(-c3cccc(C#N)c3)nc(N)n2n1 [Example 94, 3-(5-Amino-2-((3-methylpyridin-2-yl)methoxy)-8-(pyrimidin-4-yl)-[1,2,4]triazolo[1,5-c]pyrimidin-7-yl)benzonitrile] |
| < 10 | < 10 | Cc1cccc(COc2nc3c(-c4ccncn4)c(-c4cccc(C#N)c4)nc(N)n3n2)n1 [Example 95, 3-(5-Amino-2-((6-methylpyridin-2-yl)methoxy)-8-(pyrimidin-4-yl)-[1,2,4]triazolo[1,5-c]pyrimidin-7-yl)benzonitrile] |
| < 10 | < 10 | N#Cc1cccc(-c2nc(N)n3nc(COc4ccccc4C#N)nc3c2-c2ccncn2)c1 [Example 96, 2-((5-Amino-7-(3-cyanophenyl)-8-(pyrimidin-4-yl)-[1,2,4]triazolo[1,5-c]pyrimidin-2-yl)methoxy)benzonitrile] |
| < 10 | < 10 | Cc1cccnc1CNc1nc2c(-c3ccncn3)c(-c3cccc(C#N)c3)nc(N)n2n1 [Example 97, 3-(5-Amino-2-(((3-methylpyridin-2-yl)methyl)amino)-8-(pyrimidin-4-yl)-[1,2,4]triazolo[1,5-c]pyrimidin-7-yl)benzonitrile] |
